Experimental data published in patent publication US20100016400A1, “AZABICYCLIC MUSCARINIC RECEPTOR ANTAGONISTS” (priority 2004, published 2010).

SMILES | melting point [°C]
CN(C)C1C2CN(C(=O)C(O)(c3ccccc3)C3CCCCC3)CC21 (stereo not drawn) | 71.3 to 72.7
CNCC1C2CN(C(=O)C(O)(c3ccccc3)C3CCCCC3)CC12 (stereo not drawn) | 140 to 142
CNC1C2CN(C(=O)C(O)(c3ccccc3)C(F)(F)F)CC21 (stereo not drawn) | 179.7 to 182
CNCC1C2CN(C(=O)C(O)(c3ccccc3)C(F)(F)F)CC12 (stereo not drawn) | 110 to 113
CNC1C2CN(C(=O)C(O)(c3ccc(C)cc3)C(F)(F)F)CC21 (stereo not drawn) | 178 to 179.4
CNCC1C2CN(C(=O)C(O)(c3ccc(C)cc3)C(F)(F)F)CC12 (stereo not drawn) | 191 to 194
